One experiment concerns the target T1, human AT1 receptor (Homo sapiens, UniProt P30556).
T1 construct: expressed in transfected cells; membrane fraction
T1 sequence (P30556 1-359): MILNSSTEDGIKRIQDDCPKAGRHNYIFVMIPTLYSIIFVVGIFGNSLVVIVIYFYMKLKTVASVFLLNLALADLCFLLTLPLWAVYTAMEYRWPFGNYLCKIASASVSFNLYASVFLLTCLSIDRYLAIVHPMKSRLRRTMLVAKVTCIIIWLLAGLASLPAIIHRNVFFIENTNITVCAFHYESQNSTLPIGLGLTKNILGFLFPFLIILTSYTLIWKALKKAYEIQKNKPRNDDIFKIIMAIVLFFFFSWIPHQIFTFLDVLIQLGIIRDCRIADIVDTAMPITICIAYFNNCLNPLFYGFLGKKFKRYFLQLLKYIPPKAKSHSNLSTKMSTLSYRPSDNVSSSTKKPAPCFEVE
The experiment in a line: AT1 receptor antagonistic activity: [125I]-angiotensin II binding assay on human AT1 receptor-expressing CHO-K1 cellular membrane fraction. Particulars: 22.5 pM [125I]-angiotensin II, 1 hr room temperature. The method in brief: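 Competition binding used radiolabelled angiotensin II on stably transfected CHO-K1 membrane fractions in Tris pH 7.4/MgCl2 buffer, optionally containing 0.3 mg/mL fatty acid-free BSA, 1 hr at room temperature. Filtration onto GF/C separated bound tracer, and nonspecific binding was measured with candesartan.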

The target in the next experiment is T2, human PPARγ (Homo sapiens, UniProt P37231).
T2 construct: expressed in transfected cells
T2 sequence (P37231 1-477 isoform P37231-2): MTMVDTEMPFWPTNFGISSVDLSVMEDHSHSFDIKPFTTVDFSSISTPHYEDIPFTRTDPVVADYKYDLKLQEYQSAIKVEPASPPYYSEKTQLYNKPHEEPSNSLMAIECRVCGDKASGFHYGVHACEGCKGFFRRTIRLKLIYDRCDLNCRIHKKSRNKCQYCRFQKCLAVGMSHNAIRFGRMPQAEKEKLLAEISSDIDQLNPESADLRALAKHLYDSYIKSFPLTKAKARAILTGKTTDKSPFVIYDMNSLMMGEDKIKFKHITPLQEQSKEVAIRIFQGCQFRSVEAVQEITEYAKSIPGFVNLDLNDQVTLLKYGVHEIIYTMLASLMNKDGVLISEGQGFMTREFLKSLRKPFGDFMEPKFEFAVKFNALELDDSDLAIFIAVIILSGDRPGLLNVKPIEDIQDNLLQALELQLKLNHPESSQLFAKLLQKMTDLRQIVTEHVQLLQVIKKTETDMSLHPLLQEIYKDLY
T2 sequence (P19793 1-462 partner): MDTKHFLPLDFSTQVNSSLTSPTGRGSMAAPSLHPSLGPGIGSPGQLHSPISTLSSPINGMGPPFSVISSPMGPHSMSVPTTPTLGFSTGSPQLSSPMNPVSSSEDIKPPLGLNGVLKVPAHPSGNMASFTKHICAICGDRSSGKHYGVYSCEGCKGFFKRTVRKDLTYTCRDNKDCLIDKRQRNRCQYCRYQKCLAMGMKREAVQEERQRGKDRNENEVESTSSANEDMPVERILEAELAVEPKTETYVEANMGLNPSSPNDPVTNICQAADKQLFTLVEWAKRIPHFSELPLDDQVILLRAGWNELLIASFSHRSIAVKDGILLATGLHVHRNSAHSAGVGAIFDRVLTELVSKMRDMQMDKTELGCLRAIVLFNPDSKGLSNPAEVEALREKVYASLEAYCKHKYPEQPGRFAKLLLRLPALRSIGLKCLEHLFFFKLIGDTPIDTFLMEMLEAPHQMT
The experiment in a line: PPARγ agonistic activity: luciferase reporter assay in PPARγ:RXRα:4ERPP/CHO-K1 cells. Type of experiment: cell-based. The following applies: CHO-K1, test compound 10^−6 M; luciferase activity of control compound X (1 μM) = 100%, non-administration group = 0%. The method, boiled down: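 CHO-K1 cells stably carrying hPPARγ/RXRα and a 4ERPP luciferase reporter, dosed with test compound for 1 day at 37 °C in Ham's F12 with 0.1% fatty acid-free BSA. Luciferase read by luminescence; activity given as % of 1 μM control compound X (100%) versus untreated (0%).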
For orientation: A reporter such as luciferase makes a cellular process visible.

Drawing on patent US8283353B2, “Fused ring compound and use thereof” (Takeda Pharmaceutical Company Limited, priority 2009, dated 2012), this text covers IC50 and activation for 15 molecules.

Consider `CCCc1c(Cc2ccc(-c3ccccc3-c3noc(=O)[nH]3)cc2F)c(=O)n([C@H]2CC[C@](C)(OCC(C)(C)O)CC2)c2nc(C)nn12` [Example 368, 6-{[3-fluoro-2′-(5-oxo-4,5-dihydro-1,2,4-oxadiazol-3-yl)biphenyl-4-yl]methyl}-4-[trans-4-(2-hydroxy-2-methylpropoxy)-4-methylcyclohexyl]-2-methyl-7-propyl[1,2,4]triazolo[1,5-a]pyrimidin-5(4H)-one], for which, on human AT1 receptor, the IC50 (as a rule, the concentration that gives 50% inhibition) was determined as 2.2 nM. In addition, the activation at 1 µM at human PPARγ turned out to be 19%.

On to `CCCc1c(Cc2ccc(-c3ccccc3-c3noc(=O)[nH]3)cc2F)c(=O)n([C@H]2CC[C@H](OC(C)C3(O)CCC3)CC2)c2ncnn12` (stereo partly drawn) [Example 371, 6-{[3-fluoro-2′-(5-oxo-4,5-dihydro-1,2,4-oxadiazol-3-yl)biphenyl-4-yl]methyl}-4-{trans-4-[1-(1-hydroxycyclobutyl)ethoxy]cyclohexyl}-7-propyl[1,2,4]triazolo[1,5-a]pyrimidin-5(4H)-one], for which the IC50 on human AT1 receptor was determined as 2.1 nM. This molecule returned an activation at 1 µM at human PPARγ of 33%.

Regarding `CCCc1c(Cc2ccc(-c3ccccc3-c3noc(=O)[nH]3)cc2)c(=O)n(C2CCN(Cc3ccccc3)CC2)c2ncnn12` [Example 373, 4-(1-benzylpiperidin-4-yl)-6-{[2′-(5-oxo-4,5-dihydro-1,2,4-oxadiazol-3-yl)biphenyl-4-yl]methyl}-7-propyl[1,2,4]triazolo[1,5-a]pyrimidin-5(4H)-one], at human AT1 receptor, the IC50 is 3.2 nM. This molecule had an activation at 1 µM on human PPARγ of 16%.

Take `CCCc1c(Cc2ccc(-c3ccccc3-c3noc(=O)[nH]3)cc2)c(=O)n(C2CCC(C(C)(C)O)CC2)c2ncnn12` (stereo not drawn) [Example 376, 4-[4-(1-hydroxy-1-methylethyl)cyclohexyl]-6-{[2′-(5-oxo-4,5-dihydro-1,2,4-oxadiazol-3-yl)biphenyl-4-yl]methyl}-7-propyl[1,2,4]triazolo[1,5-a]pyrimidin-5(4H)-one]: the IC50 at human AT1 receptor turned out to be 1.2 nM. For the same molecule, the activation at 1 µM at human PPARγ is 19%.

`CCCc1c(Cc2ccc(-c3ccccc3-c3noc(=O)[nH]3)cc2)c(=O)n([C@H]2CC[C@H](OCC(C)O)CC2)c2ncnn12` (stereo partly drawn) [Example 379, 4-[trans-4-(2-hydroxypropoxy)cyclohexyl]-6-{[2′-(5-oxo-4,5-dihydro-1,2,4-oxadiazol-3-yl)biphenyl-4-yl]methyl}-7-propyl[1,2,4]triazolo[1,5-a]pyrimidin-5(4H)-one] registered an IC50 at human AT1 receptor of 2.2 nM. The same molecule came in with an activation at 1 µM at human PPARγ of 34%.

Turning to `CCCc1c(Cc2ccc(-c3ccccc3-c3noc(=O)[nH]3)cc2)c(=O)n(C2CCN(c3ccc(O)cc3)CC2)c2ncnn12` [Example 382, 4-[1-(4-hydroxyphenyl)piperidin-4-yl]-6-{[2′-(5-oxo-4,5-dihydro-1,2,4-oxadiazol-3-yl)biphenyl-4-yl]methyl}-7-propyl[1,2,4]triazolo[1,5-a]pyrimidin-5(4H)-one], the IC50 on human AT1 receptor stood at 2.9 nM. Moreover, the activation at 1 µM on human PPARγ is 35%.

Molecule `CCCc1c(Cc2ccc(-c3ccccc3-c3noc(=O)[nH]3)cc2)c(=O)n([C@H]2CC[C@](C)(OCC(C)(C)O)CC2)c2ncnn12` [Example 385, 4-[trans-4-(2-hydroxy-2-methylpropoxy)-4-methylcyclohexyl]-6-{[2′-(5-oxo-4,5-dihydro-1,2,4-oxadiazol-3-yl)biphenyl-4-yl]methyl}-7-propyl[1,2,4]triazolo[1,5-a]pyrimidin-5(4H)-one] had an IC50 at human AT1 receptor of 2 nM. The activation at 1 µM on human PPARγ amounted to 23%.

`CCCc1c(Cc2ccc(-c3ccccc3-c3noc(=O)[nH]3)cc2)c(=O)n([C@H]2CC[C@]3(CCC(CO)O3)CC2)c2ncnn12` (stereo partly drawn) [Example 391, 4-[(5S,8S)-2-(hydroxymethyl)-1-oxaspiro[4.5]dec-8-yl]-6-{[2′-(5-oxo-4,5-dihydro-1,2,4-oxadiazol-3-yl)biphenyl-4-yl]methyl}-7-propyl[1,2,4]triazolo[1,5-a]pyrimidin-5(4H)-one]: the IC50 on human AT1 receptor is 3.1 nM. Moreover, the activation at 1 µM on human PPARγ is 28%.

As to `CCCc1c(Cc2ccc(-c3ccccc3-c3noc(=O)[nH]3)cc2)c(=O)n([C@H]2CC[C@@]3(CCC(CO)O3)CC2)c2ncnn12` (stereo partly drawn) [Example 392, 4-[(5R,8R)-2-(hydroxymethyl)-1-oxaspiro[4.5]dec-8-yl]-6-{[2′-(5-oxo-4,5-dihydro-1,2,4-oxadiazol-3-yl)biphenyl-4-yl]methyl}-7-propyl[1,2,4]triazolo[1,5-a]pyrimidin-5(4H)-one], the IC50 on human AT1 receptor is 2.2 nM. For the same molecule, the activation at 1 µM on human PPARγ is 20%.

`CCCc1c(Cc2ccc(-c3ccccc3-c3noc(=O)[nH]3)cc2)c(=O)n([C@H]2CC[C@H](OCC(C)=O)CC2)c2ccnn12` [Example 420, 6-{[2′-(5-oxo-4,5-dihydro-1,2,4-oxadiazol-3-yl)biphenyl-4-yl]methyl}-4-[trans-4-(2-oxopropoxy)cyclohexyl]-7-propylpyrazolo[1,5-a]pyrimidin-5(4H)-one]: the IC50 at human AT1 receptor was 2.2 nM. In addition, the activation at 1 µM at human PPARγ came to 21%.

On human AT1 receptor, `CCCc1c(Cc2ccc(-c3ccccc3-c3noc(=O)[nH]3)cc2)c(=O)n([C@H]2CC[C@H](OCC3(O)CC3)CC2)c2ccnn12` [Example 427, 4-{trans-4-[(1-hydroxycyclopropyl)methoxy]cyclohexyl}-6-{[2′-(5-oxo-4,5-dihydro-1,2,4-oxadiazol-3-yl)biphenyl-4-yl]methyl}-7-propylpyrazolo[1,5-a]pyrimidin-5(4H)-one] gave an IC50 of 1.9 nM. On human PPARγ, the activation at 1 µM was 18%.

At human AT1 receptor, `CCCCc1c(Cc2ccc(-c3ccccc3-c3noc(=O)[nH]3)cc2)c(=O)n([C@H]2CC[C@H](OCC(C)(C)O)CC2)c2ccnn12` [Example 434, 7-butyl-4-[trans-4-(2-hydroxy-2-methylpropoxy)cyclohexyl]-6-{[2′-(5-oxo-4,5-dihydro-1,2,4-oxadiazol-3-yl)biphenyl-4-yl]methyl}pyrazolo[1,5-a]pyrimidin-5(4H)-one] yielded an IC50 of 2.1 nM. This molecule had an activation at 1 µM at human PPARγ of 25%.

For the molecule `CCCc1c(Cc2ccc(-c3ccccc3-c3noc(=O)[nH]3)cc2F)c(=O)n([C@H]2CC[C@H](OCC(C)(C)O)CC2)c2ccnn12` [Example 435, 6-{[3-fluoro-2′-(5-oxo-4,5-dihydro-1,2,4-oxadiazol-3-yl)biphenyl-4-yl]methyl}-4-[trans-4-(2-hydroxy-2-methylpropoxy)cyclohexyl]-7-propylpyrazolo[1,5-a]pyrimidin-5(4H)-one], on human AT1 receptor, the IC50 turned out to be 1.7 nM. Also, on human PPARγ, the activation at 1 µM was determined as 30%.

`CCCc1c(Cc2ccc(-c3ccccc3-c3noc(=O)[nH]3)cc2)c(=O)n([C@H]2CC[C@H](OCC(C)(C)O)CC2)c2c(F)cnn12` [Example 442, 3-fluoro-4-[trans-4-(2-hydroxy-2-methylpropoxy)cyclohexyl]-6-{[2′-(5-oxo-4,5-dihydro-1,2,4-oxadiazol-3-yl)biphenyl-4-yl]methyl}-7-propylpyrazolo[1,5-a]pyrimidin-5(4H)-one] showed an IC50 at human AT1 receptor of 2 nM. Further, the activation at 1 µM on human PPARγ is 22%.

Take `CCCCc1c(Cc2ccc(-c3ccccc3-c3nnn[nH]3)cc2F)c(=O)n([C@H]2CC[C@H](OCC(C)(C)O)CC2)c2ncnn12` [Example 457, 7-butyl-6-{[3-fluoro-2′-(1H-tetrazol-5-yl)biphenyl-4-yl]methyl}-4-[trans-4-(2-hydroxy-2-methylpropoxy)cyclohexyl][1,2,4]triazolo[1,5-a]pyrimidin-5(4H)-one]: the IC50 on human AT1 receptor was 1.8 nM. The same molecule returned an activation at 1 µM on human PPARγ of 19%.
